Data on 22 compounds can be found in patent US10214546B2, “Btk inhibitors” (MERCK SHARP & DOHME CORP., priority 2014, dated 2019).

pIC50: −log10 of the molar value. Read-outs that look alike come from different tables or passages of the source.

The test system of experiment [1] is adenosine uptake into HeLa cells. Description: [3H]Adenosine uptake assay in HeLa cells. The experiment is classed as cell-based. Particulars: [3H]adenosine accumulation in HeLa cells, compound range 10 μM to 0.032 nM, read-out: ADU inhibition IC50. The essentials:
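IC50 came from a 4-parameter fit of counts per second over a ten-point, 1:3 titration (final 10 µM down to […]). Compound was applied 30 min at ambient temperature in HBSS/5% FBS before a 500 nM [3H]adenosine solution was added; uptake ran 60 min, read by Cytostar-T proximity scintillation.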

For experiment [2], the target named is BTK enzyme (recombinant full-length BTK, hBTK) (Homo sapiens (Human), UniProt Q06187). Description: BTK enzymatic activity LANCE TR-FRET assay. Format: biochemical. The following applies: 50 pM hBTK, 25 μM ATP, 2 μM biotin-A5-peptide; compound range 1 μM to 0.017 nM; read-out: BTK binding IC50.
BTK enzyme (recombinant full-length BTK, hBTK), sequence (Q06187 whole entry): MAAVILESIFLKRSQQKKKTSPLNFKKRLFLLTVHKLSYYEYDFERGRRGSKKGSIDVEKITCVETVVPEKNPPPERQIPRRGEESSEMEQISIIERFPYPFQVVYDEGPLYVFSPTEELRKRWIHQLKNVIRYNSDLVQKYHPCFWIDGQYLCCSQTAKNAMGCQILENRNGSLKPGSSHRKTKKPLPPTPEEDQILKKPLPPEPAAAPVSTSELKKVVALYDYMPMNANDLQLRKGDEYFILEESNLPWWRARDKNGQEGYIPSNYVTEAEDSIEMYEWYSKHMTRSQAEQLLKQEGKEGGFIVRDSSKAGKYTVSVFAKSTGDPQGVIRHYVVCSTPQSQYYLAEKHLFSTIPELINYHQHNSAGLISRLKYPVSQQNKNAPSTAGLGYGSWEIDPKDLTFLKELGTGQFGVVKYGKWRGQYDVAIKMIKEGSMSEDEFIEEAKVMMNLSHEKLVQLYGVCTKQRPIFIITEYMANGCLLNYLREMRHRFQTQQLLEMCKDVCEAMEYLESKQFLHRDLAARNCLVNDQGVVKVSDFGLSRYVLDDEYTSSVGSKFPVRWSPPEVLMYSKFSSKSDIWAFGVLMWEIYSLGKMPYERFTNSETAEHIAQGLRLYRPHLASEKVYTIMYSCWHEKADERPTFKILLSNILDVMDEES

For orientation: pIC50 means −log10 of the IC50, conventionally taken in molar units. Take `C[C@@](O)(c1ccc(-c2nc([C@@H]3CC[C@H]4CCCN4C3)n3ccnc(N)c23)cc1)c1cccc(C(F)(F)F)c1` [Example 62, (1R)-1-(4-{8-amino-3-[(6R,8aS)-octahydroindolizin-6-yl]imidazo[1,5-a]pyrazin-1-yl}phenyl)-1-[3-(trifluoromethyl)phenyl] ethanol]: the pIC50 in experiment [1] (Homo sapiens, HeLa) was 5.64; in experiment [2], 7.71.
Consider `C[C@](O)(c1ccc(-c2nc([C@@H]3CC[C@H]4CCCN4C3)n3ccnc(N)c23)cc1)c1cccc(C(F)(F)F)c1` [Example 63, (1S)-1-(4-{8-amino-3-[(6R,8aS)-octahydroindolizin-6-yl]imidazo[1,5-a]pyrazin-1-yl}phenyl)-1-[3-(trifluoromethyl)phenyl] ethanol], for which the pIC50 is 5.83 in experiment [1] (Homo sapiens, HeLa) and 6.00 in experiment [2].
As for `COc1cc(-c2nc([C@@H]3CC[C@H]4CCC(=O)N4C3)n3ccnc(N)c23)ccc1C(C)(O)c1cccc(C(F)(F)F)c1` (stereo partly drawn) [Example 64, (6R,8aS)-6-[8-amino-1-(4-{1-hydroxy-1-[3-(trifluoromethyl)phenyl]ethyl}-3-methoxyphenyl)imidao [1,5-a]pyrazin-3-yl]hexahydroindolizin-3(2H)-one], the pIC50 was 6.03 in experiment [1] and 7.23 in experiment [2].
With `COc1cc(-c2nc([C@@H]3CC[C@H]4CCC(=O)N4C3)n3ccnc(N)c23)ccc1C(C)(O)c1cccc(C(F)(F)F)c1` (stereo partly drawn) [Example 65, (6R,8aS)-6-[8-amino-1-(4-{1-hydroxy-1-[3-(trifluoromethyl)phenyl]ethyl}-3-methoxyphenyl)imidazo [1,5-a]pyrazin-3-yl]hexahydroindolizin-3(2H)-one], the values for the pIC50 in experiment [1] and in experiment [2] were 5.00 and 8.15, respectively.
Consider `C[C@@](O)(c1ccc(-c2nc([C@@H]3CC[C@H]4CCC(=O)N4C3)n3ccnc(N)c23)cc1)c1cccc(N2CCOCC2)c1` [Example 66, (6R,8aS)-6-(8-amino-1-{4-[(1R)-1-hydroxy-1-(3-morpholin-4-ylphenyl)ethyl]phenyl}imidazo[1,5-a]pyrazin-3-yl)hexahydroindolizin-3(2H)-one], for which the negative-log IC50 (pIC50) in experiment [1] (Homo sapiens, HeLa) was 5.38; in experiment [2], 6.10.
As for `C[C@](O)(c1ccc(-c2nc([C@@H]3CC[C@H]4CCC(=O)N4C3)n3ccnc(N)c23)cc1)c1cccc(N2CCOCC2)c1` [Example 67, (6R,8aS)-6-(8-amino-1-{4-[(1S)-1-hydroxy-1-(3-morpholin-4-ylphenyl)ethyl]phenyl}imidazo[1,5-a]pyrazin-3-yl)hexahydroindolizin-3(2H)-one], the pIC50 in experiment [1] (Homo sapiens, HeLa) was 5.07; in experiment [2] it was 7.81.
Consider `C[C@](O)(c1ccc(-c2nc([C@@H]3CC[C@H]4CCC(=O)N4C3)n3ccnc(N)c23)cc1)c1ccccc1F` [Example 68, (6R,8aS)-6-(8-amino-1-{4-[(1S)-1-(2-fluorophenyl)-1-hydroxyethyl]phenyl}imidazo[1,5-a]pyrazin-3-yl)hexahydroindolizin-3(2H)-one], for which the pIC50 in experiment [1] (Homo sapiens, HeLa) was 5.26; in experiment [2], 6.34.
For the compound `C[C@@](O)(c1ccc(-c2nc([C@@H]3CC[C@H]4CCC(=O)N4C3)n3ccnc(N)c23)cc1)c1ccccc1F` [Example 69, (6R,8aS)-6-(8-amino-1-{4-[(1R)-1-(2-fluorophenyl)-1-hydroxyethyl]phenyl}imidazo[1,5-a]pyrazin-3-yl)hexahydroindolizin-3(2H)-one], the pIC50 was 5.19 in experiment [1] (Homo sapiens, HeLa) and 8.31 in experiment [2].
In the same order, the values of `C[C@](O)(c1ccc(-c2nc([C@@H]3CC[C@H]4CCC(=O)N4C3)n3ccnc(N)c23)cc1)c1cccc(C(F)F)c1` [Example 70, (6R,8aS)-6-[8-amino-1-(4-{(1S)-1-[3-(difluoromethyl)phenyl]-1-hydroxyethyl}phenyl)imidazo[1,5-a]pyrazin-3-yl]hexahydroindolizin-3(2H)-one] are 5.99 and 7.52.
`C[C@@](O)(c1ccc(-c2nc([C@@H]3CC[C@H]4CCC(=O)N4C3)n3ccnc(N)c23)cc1)c1cccc(C(F)F)c1` [Example 71, (6R,8aS)-6-[8-amino-1-(4-{(1R)-1-[3-(difluoromethyl)phenyl]-1-hydroxyethyl}phenyl)imidazo[1,5-a]pyrazin-3-yl]hexahydroindolizin-3(2H)-one]: the pIC50 in experiment [1] (Homo sapiens, HeLa) was 5.29; in experiment [2], 9.72.
`Nc1nccn2c([C@@H]3CC[C@H]4CCC(=O)N4C3)nc(-c3ccc(C(O)c4cccc(C(F)(F)F)c4)cc3)c12` (stereo partly drawn) [Example 72, (6R,8aS)-6-[8-amino-1-(4-{hydroxy[3-(trifluoromethyl)phenyl]methyl}phenyl)imidazo [1,5-a]pyrazin-3-yl]hexahydroindolizin-3(2H)-one]: the pIC50 was 6.33 in experiment [1] and 7.69 in experiment [2].
In the same order, the values of `Nc1nccn2c([C@@H]3CC[C@H]4CCC(=O)N4C3)nc(-c3ccc(C(O)c4cccc(C(F)(F)F)c4)cc3)c12` (stereo partly drawn) [Example 73, (6R,8aS)-6-[8-amino-1-(4-{hydroxy[3-(trifluoromethyl)phenyl]methyl}phenyl)imidazo [1,5-a]pyrazin-3-yl]hexahydroindolizin-3(2H)-one] are 5.87 and 9.39.
With `CC(C)c1cccc([C@@](C)(O)c2ccc(-c3nc([C@@H]4CC[C@H]5CCC(=O)N5C4)n4ccnc(N)c34)cc2)c1` [Example 74, (6R,8aS)-6-[8-amino-1-(4-{(1S)-1-hydroxy-1-[3(1-methylethyl)phenyl]ethyl}phenyl)imidazo[1,5-a]pyrazin-3-yl]hexahydroindolizin-3(2H)-one], the pIC50 in experiment [1] (Homo sapiens, HeLa) is 6.33; in experiment [2] it was 7.82.
Turning to `CC(C)c1cccc([C@](C)(O)c2ccc(-c3nc([C@@H]4CC[C@H]5CCC(=O)N5C4)n4ccnc(N)c34)cc2)c1` [Example 75, (6R,8aS)-6-[8-amino-1-(4-{(1R)-1-hydroxy-1-[3(1-methylethyl)phenyl]ethyl}phenyl)imidazo[1,5-a]pyrazin-3-yl]hexahydroindolizin-3(2H)-one], the pIC50 in experiment [1] (Homo sapiens, HeLa) is 5.70; in experiment [2], 9.68.
Consider `CC(C)C(O)(c1ccc(-c2nc([C@@H]3CC[C@H]4CCC(=O)N4C3)n3ccnc(N)c23)cc1)c1cccc(C(F)(F)F)c1` (stereo partly drawn) [Example 76, (6R,8aS)-6-[8-amino-1-(4-{1-hydroxy-2-methyl-1-[3-(trifluoromethyl)phenyl]propyl}phenyl)imidazo [1,5-a]pyrazin-3-yl]hexahydroindolizin-3(2H)-one], for which the pIC50 in experiment [1] (Homo sapiens, HeLa) is 5.68; in experiment [2], 6.00.
Take `C[C@](O)(c1ccc(-c2nc([C@@H]3CC[C@H]4CCC(=O)N4C3)n3ccnc(N)c23)cc1)c1cccc(CC(F)(F)F)c1` [Example 77, (6R,8aS)-6-[8-amino-1-(4-{(1S)-1-hydroxy-1-[3-(2,2,2-trifluoroethyl)phenyl]ethyl}phenyl)imidazo[1,5-a]pyrazin-3-yl]hexahydroindolizin-3(2H)-one]: the pIC50 in experiment [1] (Homo sapiens, HeLa) was 5.98; in experiment [2], 7.62.
`C[C@@](O)(c1ccc(-c2nc([C@@H]3CC[C@H]4CCC(=O)N4C3)n3ccnc(N)c23)cc1)c1cccc(CC(F)(F)F)c1` [Example 78, (6R,8aS)-6-[8-amino-1-(4-{(1R)-1-hydroxy-1-[3-(2,2,2-trifluoroethyl)phenyl]ethyl}phenyl)imidazo[1,5-a]pyrazin-3-yl]hexahydroindolizin-3(2H)-one]: the pIC50 was 5.55 in experiment [1] (Homo sapiens, HeLa) and 9.77 in experiment [2].
Turning to `CC(C)C(O)(c1ccc(-c2nc([C@@H]3CC[C@H]4CCC(=O)N4C3)n3ccnc(N)c23)cc1)c1cccc(C(F)(F)F)c1` (stereo partly drawn) [Example 79, (6R,8aS)-6-[8-amino-1-(4-{1-hydroxy-2-methyl-1-[3-(trifluoromethyl)phenyl]propyl}phenyl)imidazo [1,5-a]pyrazin-3-yl]hexahydroindolizin-3(2H)-one], the pIC50 was 5.83 in experiment [1] and 6.69 in experiment [2].
On to `C[C@@](O)(c1cccc(C(F)(F)F)c1)c1ccc(-c2nc([C@@H]3CC[C@H]4CCC(=O)N4C3)n3ccnc(N)c23)c(C(F)F)c1` [Example 80, (6R,8aS)-6-{8-amino-1-[2-(difluoromethyl)-4-{(1S)-1-hydroxy-1-[3-(trifluoromethyl)phenyl]ethyl}phenyl]imidazo [1,5-a]pyrazin-3-yl}-hexahydroindolizin-3(2H)-one], for which the pIC50 in experiment [1] (Homo sapiens, HeLa) was 5.76; in experiment [2] it was 6.09.
Take `C[C@](O)(c1cccc(C(F)(F)F)c1)c1ccc(-c2nc([C@@H]3CC[C@H]4CCC(=O)N4C3)n3ccnc(N)c23)c(C(F)F)c1` [Example 81, (6R,8aS)-6-{8-amino-1-[2-(difluoromethyl)-4-{(1R)-1-hydroxy-1-[3-(trifluoromethyl)phenyl]ethyl}phenyl]imidazo [1,5-a]pyrazin-3-yl}hexahydroindolizin-3(2H)-one]: the pIC50 in experiment [1] (Homo sapiens, HeLa) is 6.16; in experiment [2], 6.00.
For `C[C@](O)(c1ccc(-c2nc([C@@H]3CC[C@H]4CCC(=O)N4C3)n3ccnc(N)c23)cc1)c1cccc(C2CCC2)c1` [Example 82, (6R,8aS)-6-(8-amino-1-{4-[(1S)-1-(3-cyclobutylphenyl)-1-hydroxyethyl]phenyl]imidazo[1,5-a]pyrazin-3-yl)hexahydroindolizin-3(2H)-one], the pIC50 is 6.13 in experiment [1] (Homo sapiens, HeLa) and 8.33 in experiment [2].
In the case of `C[C@@](O)(c1ccc(-c2nc([C@@H]3CC[C@H]4CCC(=O)N4C3)n3ccnc(N)c23)cc1)c1cccc(C2CCC2)c1` [Example 83, (6R,8aS)-6-(8-amino-1-{4-[(1R)-1-(3-cyclobutylphenyl)-1-hydroxyethyl]phenyl}imidazo[1,5-a]pyrazin-3-yl)hexahydroindolizin-3(2H)-one], the pIC50 in experiment [1] (Homo sapiens, HeLa) was 5.88; in experiment [2], 9.92.
